From patent publication US20150196612A1, “Anti-enterovirus 71 steroidal saponins and their preparation” (Shanghai University of Traditional Chinese Medicine, priority 2014, published 2015)

Assays:
[1] = cytotoxicity (CC50) of steroidal saponins
enterovirus 71 (EV71) = test: anti-EV71 activity (antiviral bioassay); format: cell-based
[2] = system: respiratory syncytial virus (RSV); conditions: read-out: IC50, inhibitory effects on RSV; cited from earlier work

C[C@@H](CC[C@@]1(O)O[C@H]2C[C@H]3[C@@H]4CC[C@@H]5C[C@@H](O[C@@H]6O[C@H](CO)[C@H](O)[C@H](O)[C@H]6O[C@@H]6O[C@H](CO)[C@@H](O)[C@H](O)[C@H]6O)CC[C@]5(C)[C@H]4CC[C@]3(C)[C@H]2[C@@H]1C)CO[C@@H]1O[C@H](CO)[C@@H](O)[C@H](O)[C@H]1O [compound 2, timosaponin B-II]
CC50 [1]: 401000 nM | Selective Index (SI) (enterovirus 71 (EV71); FIG. 6): 92.876 | IC50 as percentage of that of positive control ribavirin (enterovirus 71 (EV71); relative to ribavirin): 1% | selectivity index relative to ribavirin's (enterovirus 71 (EV71); relative to ribavirin): more than 40 times

C[C@H]1CC[C@@]2(OC1)O[C@H]1C[C@H]3[C@@H]4CC[C@@H]5C[C@@H](O)CC[C@]5(C)[C@H]4CC[C@]3(C)[C@H]1[C@@H]2C [compound 8, Sarsasapogenin, reference compound]
anti-EV71 activity of compounds (in words) (enterovirus 71 (EV71); FIG. 6): completely inactive

NC(=O)c1ncn([C@@H]2O[C@H](CO)[C@@H](O)[C@H]2O)n1 [Ribavirin, ribavirin, reference compound]
Selective Index (SI) (enterovirus 71 (EV71); FIG. 6): 2.365

C[C@H]1CC[C@@]2(OC1)O[C@H]1C[C@H]3[C@@H]4CC[C@@H]5C[C@@H](O[C@@H]6O[C@H](CO)[C@H](O)[C@H](O)[C@H]6O[C@@H]6O[C@H](CO)[C@@H](O)[C@H](O)[C@H]6O)CC[C@]5(C)[C@H]4CC[C@]3(C)[C@H]1[C@@H]2C [compound 7, timosaponin A-III]
IC50 (enterovirus 71 (EV71); FIG. 6, read-out: IC50 (50% inhibitory concentration), anti-EV71): 1060 nM | IC50 [2]: 1000 nM

CC1=C(CCC(C)CO[C@@H]2O[C@H](CO)[C@@H](O)[C@H](O)[C@H]2O)O[C@H]2CC3C4CCC5CC(O[C@@H]6O[C@H](CO)[C@H](O)[C@H](O)[C@H]6O[C@@H]6O[C@H](CO)[C@@H](O)[C@H](O)[C@H]6O)CC[C@]5(C)C4CC[C@]3(C)[C@@H]12 (stereo partly drawn) [compound 3, anemarsaponin B]
anti-EV71 activity of compounds (in words) (enterovirus 71 (EV71); FIG. 6): completely inactive
